The record followed here is article PMC3213090, “Phytophthora sojae Avirulence Effector Avr3b is a Secreted NADH and ADP-ribose Pyrophosphorylase that Modulates Plant Immunity” (PLoS Pathogens, 2011).

Assay [1] deals with T1, FLAG:Avr3b^P6497 (Avh307^P6497) (Phytophthora sojae, UniProt E0W4V8).
T1 construct: gene Avh; signal peptide replaced by N-terminal FLAG tag; 34-35 kDa; precursor 315 residues; Nicotiana benthamiana agroinfiltration (PVX vector pGR107), anti-FLAG immunoprecipitated, 3xFLAG eluted
T1 sequence (E0W4V8 entry or part of it): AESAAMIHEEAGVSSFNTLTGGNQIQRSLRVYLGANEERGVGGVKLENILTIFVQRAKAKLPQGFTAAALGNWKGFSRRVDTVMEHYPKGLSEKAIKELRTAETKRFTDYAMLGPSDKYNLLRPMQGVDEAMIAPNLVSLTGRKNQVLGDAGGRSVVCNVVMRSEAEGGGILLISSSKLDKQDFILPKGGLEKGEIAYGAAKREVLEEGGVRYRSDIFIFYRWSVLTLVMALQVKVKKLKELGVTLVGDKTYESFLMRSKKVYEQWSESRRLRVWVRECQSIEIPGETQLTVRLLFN
The assay can be described thus: phosphate release coupled to calf alkaline phosphatase, molybdate A820. In kind it is biochemical. To be noted: 2 mM substrate, 5 mM MgCl2, 1 mM DTT, pH 8.5, 37 C; immunoprecipitate, not homogeneous.

The next assay addresses T2, FLAG:AtNUDT7 (Arabidopsis thaliana, UniProt Q9SU14).
T2 construct: gene NUDT7; FLAG tag fused; Nicotiana benthamiana transient expression, anti-FLAG immunoprecipitated, eluted
T2 sequence (Q9SU14 1-282): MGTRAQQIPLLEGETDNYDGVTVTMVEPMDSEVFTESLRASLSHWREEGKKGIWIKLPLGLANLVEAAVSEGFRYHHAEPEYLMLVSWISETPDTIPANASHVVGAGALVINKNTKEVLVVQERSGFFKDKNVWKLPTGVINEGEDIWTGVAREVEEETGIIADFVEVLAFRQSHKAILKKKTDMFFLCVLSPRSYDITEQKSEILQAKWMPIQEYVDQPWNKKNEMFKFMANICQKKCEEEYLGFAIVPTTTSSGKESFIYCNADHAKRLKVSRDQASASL
The assay is described as above. In kind it is biochemical. To be noted: 2 mM substrate, 5 mM MgCl2, 1 mM DTT, pH 8.5, 37 C; immunoprecipitate, not homogeneous.

Turning to `Nc1ncnc2c1ncn2[C@@H]1O[C@H](COP(=O)(O)OP(=O)(O)OC[C@H]2OC(O)[C@H](O)[C@@H]2O)[C@@H](O)[C@H]1O` (stereo partly shown) [ADP-ribose], the “relative hydrolase activity (ratio over GFP)” value is “FLAG:AtNUDT7 and FLAG:Avr3b^P6497 immunoprecipitates could both hydrolyze ADPR and NADH” in assay [1]; “FLAG:AtNUDT7 and FLAG:Avr3b^P6497 immunoprecipitates could both hydrolyze ADPR and NADH” at FLAG:AtNUDT7.
Take `NC(=O)C1=CN([C@@H]2O[C@H](COP(=O)(O)OP(=O)(O)OC[C@H]3O[C@@H](n4cnc5c(N)ncnc54)[C@H](O)[C@@H]3O)[C@@H](O)[C@H]2O)C=CC1` [NADH]: the “relative hydrolase activity (ratio over GFP)” value in assay [1] was “FLAG:AtNUDT7 and FLAG:Avr3b^P6497 immunoprecipitates could both hydrolyze ADPR and NADH”; at FLAG:AtNUDT7, “FLAG:AtNUDT7 and FLAG:Avr3b^P6497 immunoprecipitates could both hydrolyze ADPR and NADH”.
